This passage reports logP results from US9212152B2, “Process for the preparation of N-hydroxy-1-(1-alkyl-1H-tetrazol-5-yl)-1-phenylmethanimine derivatives” (BAYER INTELLECTUAL PROPERTY GMBH, priority 2012, dated 2015).

Each structure is given as a SMILES string.

The nature of the data set: log P determination. It is filed as physicochemical. Conditions: pH 2.7.

Usually logP stands for a log measure of how a compound divides between an organic and an aqueous phase. A high value points to a more lipophilic compound.

As for `Cn1nnnc1C(=NO)c1ccccc1` [Example 1, sodium {[(1-methyl-1H-tetrazol-5-yl)(phenyl)methylene]amino}oxidanide], the logP turned out to be 1.45.
